Columns and labels:
[1] = mn = molality of the nth substance listed, in mol/kg; details: 101.3 kPa, Liquid; for viscosity: Capillary tube (Ostwald / Ubbelohde) method; for mass density: Pycnometric method
[2] = 101.3 kPa, Liquid, Capillary tube (Ostwald / Ubbelohde) method

O=C[C@H](O)[C@@H](O)[C@H](O)[C@H](O)CO [D-glucose] + O
[1], m1 = 0.06
Details	mass density [kg/m3]	viscosity [mPa·s]
288.15 K	1003.25	1.174
298.15 K	1001.17	0.9111
308.15 K	998.15	0.7299

[Cl-].[Na+] [sodium chloride] + O
[1], m1 = 0.06
Details	mass density [kg/m3]	viscosity [mPa·s]
288.15 K	1001.64	1.146
298.15 K	999.52	0.896
308.15 K	–	0.7233

CCCC(CCC)C(=O)[O-].[Na+] [sodium valproate] + O
[1]
Details	mass density, 288.15 K [kg/m3]	mass density, 298.15 K [kg/m3]	mass density, 308.15 K [kg/m3]	viscosity, 288.15 K [mPa·s]	viscosity, 298.15 K [mPa·s]	viscosity, 308.15 K [mPa·s]
m1 = 0.01	–	997.43	994.42	–	0.8988	0.7252
m1 = 0.0102	999.51	–	–	1.153	–	–
m1 = 0.0191	999.84	997.79	–	1.162	0.9064	–
m1 = 0.02	–	–	994.78	–	–	0.7296
m1 = 0.0245	1000.06	997.98	–	1.169	0.9122	–
m1 = 0.0303	–	–	995.13	–	–	0.7345
m1 = 0.0305	1000.3	998.22	–	1.177	0.9166	–
m1 = 0.0401	1000.66	998.56	–	1.187	0.9238	–
m1 = 0.0405	–	–	995.53	–	–	0.7397
m1 = 0.0453	1000.87	998.75	–	1.195	0.9268	–
m1 = 0.0497	–	–	995.89	–	–	0.7444
m1 = 0.0501	1001.04	998.91	–	1.201	0.9318	–
m1 = 0.0605	–	–	996.24	–	–	0.7499
m1 = 0.0608	1001.43	999.3	–	1.213	0.9391	–
m1 = 0.0706	1001.79	999.64	–	1.225	0.9476	–
m1 = 0.0708	–	–	996.63	–	–	0.7552
m1 = 0.08	1002.15	999.96	–	1.238	0.9558	–
m1 = 0.0844	–	–	997.07	–	–	0.7617
m1 = 0.0902	–	–	997.29	–	–	0.7645
m1 = 0.0924	1002.59	1000.39	–	1.252	0.9653	–
m1 = 0.0959	–	–	997.48	–	–	0.7686
m1 = 0.101	–	–	997.66	–	–	0.7716
m1 = 0.1021	1002.93	1000.72	–	1.262	0.9733	–
m1 = 0.1154	–	–	998.16	–	–	0.7769

O [water]
[2]
Details	viscosity [mPa·s]
288.15 K	1.138
298.15 K	0.8903
308.15 K	0.7195

O [water] + CCCC(CCC)C(=O)[O-].[Na+]
[1], m2 = 0
Details	viscosity [mPa·s]
288.15 K	1.138
298.15 K	0.8903
308.15 K	0.7195
